Among the test systems are 786-0 renal; HL-60(TB) leukemia; HOP-62 NSCLC; NCI-H23 lung; NCI/ADR-RES ovarian; RXF 393 renal; UACC-62 melanoma; CCRF-CEM leukemia.
What all share (test): NCI tumour cell line growth inhibition, 48 h

The structures appear in SMILES notation.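 Assay format: 96-well plates, 48-hour exposure. The concentration for 50% growth inhibition is given as GI50. The concentration for full growth arrest is given as TGI.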

Take `O=C1C(Sc2ccc3ccccc3c2)=C(Sc2ccc3ccccc3c2)C(=O)c2ccccc21`: the TGI with 786-0 renal worked out at 25.3 µM; in the test with HL-60(TB) leukemia, 11.2 µM; in the test with HOP-62 NSCLC, 27.8 µM; in the test on NCI-H23 lung it was 22.1 µM; with NCI/ADR-RES ovarian, 44.9 µM; in the test on RXF 393 renal, 32.6 µM. Besides, the TGI in the test with UACC-62 melanoma worked out at 14.2 µM.

Regarding `C=CC[N+]1(CC)CCN=C1CCCCCCCCCCCCCCCCC` (configuration not stated), the GI50 in the test with 786-0 renal was 0.788 µM; in the test on HL-60(TB) leukemia, 0.562 µM; with HOP-62 NSCLC, 0.53 µM; with NCI-H23 lung, 0.119 µM; with RXF 393 renal, 0.205 µM; with UACC-62 melanoma it was 0.935 µM. Also, the TGI in the test on 786-0 renal came out at 2.11 µM; with HL-60(TB) leukemia it was 2.07 µM; with HOP-62 NSCLC it was 1.75 µM; in the test with NCI-H23 lung, 0.589 µM; with RXF 393 renal, 0.836 µM; in the test on UACC-62 melanoma, 2.3 µM.

Regarding `O=C1/C(=C/c2ccccc2O)N=C(c2ccccc2)N1c1cc(C(F)(F)F)ccc1Cl`, the GI50 in the test on 786-0 renal is 18.3 µM; in the test on HL-60(TB) leukemia it was greater than 100 µM; in the test with HOP-62 NSCLC it was 15.9 µM; with NCI-H23 lung, 80.1 µM; with NCI/ADR-RES ovarian it was 46.6 µM; with RXF 393 renal, 29.9 µM. Also, the GI50 in the test with UACC-62 melanoma is 69.3 µM. In addition, the TGI in the test on 786-0 renal is 44.1 µM; in the test with HL-60(TB) leukemia it was greater than 100 µM; in the test on HOP-62 NSCLC, 30.4 µM; in the test with NCI-H23 lung, greater than 100 µM; in the test on NCI/ADR-RES ovarian, greater than 100 µM; in the test with RXF 393 renal it was 81.3 µM. The same compound gave a TGI in the test with UACC-62 melanoma greater than 100 µM.

For `O=C(CO)C1CC2C=CC1C2` (configuration not stated), the TGI with 786-0 renal, with CCRF-CEM leukemia, with HL-60(TB) leukemia, in the test with HOP-62 NSCLC, with NCI-H23 lung and with RXF 393 renal was greater than 100 µM each time. For the same compound, the TGI in the test with UACC-62 melanoma is greater than 100 µM.

Consider `Clc1ccc([I+]c2ccc(Cl)cc2Cl)c(Cl)c1`, for which the GI50 in the test with 786-0 renal is 2.09 µM; in the test on CCRF-CEM leukemia, 2.09 µM; with HL-60(TB) leukemia it was 2.09 µM; in the test with HOP-62 NSCLC, 2.27 µM; with NCI-H23 lung, 2.13 µM; in the test on NCI/ADR-RES ovarian, 9.47 µM. For the same compound, the TGI worked out at 4.36 µM with 786-0 renal; 5.32 µM in the test with CCRF-CEM leukemia; 4.58 µM in the test with HL-60(TB) leukemia; 4.91 µM in the test on HOP-62 NSCLC; 4.83 µM in the test on NCI-H23 lung; 32 µM in the test with NCI/ADR-RES ovarian.

Regarding `c1ccc2c(CNCCN3CCNCC3)c3ccccc3c(CNCCN3CCNCC3)c2c1`, the GI50 in the test with 786-0 renal was 2.26 µM; in the test with CCRF-CEM leukemia it was 2.3 µM; with HOP-62 NSCLC it was 11.9 µM; in the test with NCI-H23 lung, 16 µM; in the test with NCI/ADR-RES ovarian it was greater than 100 µM; in the test with RXF 393 renal it was 25.3 µM. Further, the GI50 with UACC-62 melanoma is 21.1 µM. The TGI in the test with 786-0 renal was 23.4 µM; in the test on CCRF-CEM leukemia, 14.2 µM; with HOP-62 NSCLC, 36.1 µM; in the test with NCI-H23 lung, 54.1 µM; in the test on NCI/ADR-RES ovarian, greater than 100 µM; with RXF 393 renal it was 81.9 µM. In the test on UACC-62 melanoma, this compound returned a TGI of 44 µM.

Regarding `Clc1nc(Cl)c2ncn(CCOCCn3cnc4c(Cl)nc(Cl)nc43)c2n1`, the GI50 is 0.325 µM in the test with 786-0 renal; 0.226 µM in the test with CCRF-CEM leukemia; 0.202 µM in the test with HOP-62 NSCLC; 0.204 µM with NCI-H23 lung; 0.216 µM in the test with NCI/ADR-RES ovarian; 0.222 µM in the test on RXF 393 renal. In addition, in the test on UACC-62 melanoma, the GI50 was 0.198 µM. The TGI in the test with 786-0 renal stood at 0.935 µM; in the test with HOP-62 NSCLC, 0.36 µM; with NCI-H23 lung, 0.401 µM; in the test with NCI/ADR-RES ovarian, 0.424 µM; in the test on RXF 393 renal, 0.474 µM; in the test with UACC-62 melanoma, 0.412 µM.

With `CN(C)CCCn1c2c(c3cc4c(cc3c1=O)OCO4)C(=O)c1ccccc1-2`, the GI50 in the test on 786-0 renal is 0.0131 µM; in the test with CCRF-CEM leukemia it was 0.192 µM; with HL-60(TB) leukemia, 3.35 µM; in the test on HOP-62 NSCLC, less than 0.0318 µM; in the test on NCI-H23 lung, 0.231 µM; in the test on RXF 393 renal, 0.852 µM. In addition, in the test on UACC-62 melanoma, the GI50 is 1.05 µM. Further, the TGI is 1.96 µM with 786-0 renal; 3.51 µM with CCRF-CEM leukemia; 20.4 µM in the test on HL-60(TB) leukemia; 1.43 µM in the test on HOP-62 NSCLC; 8.93 µM with RXF 393 renal; 9.57 µM in the test on UACC-62 melanoma.

On to `C=C1C(=O)O[C@H]2[C@H]1CC/C(COC(=O)NCc1c[nH]c3ccc(F)cc13)=C\CC[C@@]1(C)O[C@@H]21`, for which the GI50 in the test with 786-0 renal is 0.899 µM; in the test with CCRF-CEM leukemia it was 0.302 µM; in the test with HOP-62 NSCLC it was 2 µM; in the test with NCI-H23 lung, 1.83 µM; in the test on NCI/ADR-RES ovarian, 3.58 µM; in the test with RXF 393 renal, 1.53 µM. Further, the GI50 with UACC-62 melanoma is 1.47 µM. Besides, the TGI in the test with 786-0 renal was found to be 2.43 µM; in the test with CCRF-CEM leukemia it was 1.2 µM; with HOP-62 NSCLC it was 4.56 µM; in the test with NCI-H23 lung it was 3.89 µM; with NCI/ADR-RES ovarian, 20.3 µM; in the test on RXF 393 renal, 3 µM. In the test with UACC-62 melanoma, the TGI was determined as 2.87 µM.

Turning to `COc1cc(/C=C/C(=O)O[C@H]2[C@H](O[C@@H]3O[C@@H](C)[C@H](O)[C@@H](O)[C@H]3O)[C@@H](O)[C@H](OCCc3ccc(O)c(O)c3)O[C@@H]2COC2OCC(O)(CO)C2O)ccc1O` (some centres not stated), the GI50 with 786-0 renal, in the test on HL-60(TB) leukemia, in the test with HOP-62 NSCLC, with NCI/ADR-RES ovarian, in the test on RXF 393 renal and in the test on UACC-62 melanoma was greater than 100 µM in each case. The TGI with 786-0 renal, with HL-60(TB) leukemia, in the test with HOP-62 NSCLC, with NCI/ADR-RES ovarian, with RXF 393 renal and in the test on UACC-62 melanoma was greater than 100 µM in each case.

Take `N#Cc1cc2c(cc1Cl)Sc1nnc(Nc3cccc4ccccc34)n1S2(=O)=O`: the GI50 in the test on 786-0 renal is 16.9 µM; in the test with HL-60(TB) leukemia it was 2.75 µM; in the test on HOP-62 NSCLC, 15.6 µM; in the test with NCI-H23 lung it was 1.8 µM; with NCI/ADR-RES ovarian it was 2.11 µM; in the test on RXF 393 renal, 2.02 µM. Moreover, the GI50 in the test on UACC-62 melanoma is 2.14 µM. Also, the TGI in the test with 786-0 renal stood at 45.4 µM; in the test on HL-60(TB) leukemia it was 20.2 µM; with HOP-62 NSCLC, 29.6 µM; in the test with NCI-H23 lung, 3.43 µM; in the test on NCI/ADR-RES ovarian, 4.4 µM; in the test with RXF 393 renal, 4.15 µM. In the test on UACC-62 melanoma, this compound showed a TGI of 5.28 µM.

In the case of `CSC1=Nc2c(c(C)c(-c3ccccc3)n2COC(CO)CO)C2=NC(=O)CN12`, the GI50 in the test on 786-0 renal is greater than 100 µM; with CCRF-CEM leukemia it was greater than 100 µM; with HOP-62 NSCLC, 98.2 µM; in the test on NCI-H23 lung it was greater than 100 µM; with NCI/ADR-RES ovarian, greater than 100 µM; with RXF 393 renal, greater than 100 µM. The GI50 with UACC-62 melanoma is greater than 100 µM. For the same compound, the TGI in the test with 786-0 renal, with CCRF-CEM leukemia, in the test on HOP-62 NSCLC, with NCI-H23 lung, in the test on NCI/ADR-RES ovarian and in the test with RXF 393 renal was greater than 100 µM throughout. For the same compound, the TGI in the test on UACC-62 melanoma was greater than 100 µM.

For `N#CC1C(N)=NNC12Nc1ccccc1S2` (configuration not stated), the GI50 was 63.4 µM in the test with 786-0 renal; 42.5 µM in the test on HL-60(TB) leukemia; 30.3 µM in the test with HOP-62 NSCLC; 5.23 µM in the test with NCI-H23 lung; 17.7 µM in the test with NCI/ADR-RES ovarian; 12.2 µM in the test on UACC-62 melanoma. In addition, the TGI in the test with 786-0 renal was greater than 100 µM; in the test on HL-60(TB) leukemia it was greater than 100 µM; with HOP-62 NSCLC, greater than 100 µM; in the test on NCI-H23 lung it was 22.8 µM; in the test with NCI/ADR-RES ovarian, 54.1 µM; in the test with UACC-62 melanoma, 30.3 µM.

Consider `Cc1ccc(S(=O)(=O)NC(=O)OC23COCN2COC3)cc1`, for which the TGI in the test with 786-0 renal, in the test on HOP-62 NSCLC, in the test with NCI-H23 lung, in the test on NCI/ADR-RES ovarian, with RXF 393 renal and in the test on UACC-62 melanoma was greater than 100 µM in each case.

Consider `C=CC(=O)N[C@@H](/C=C/C(=O)OCC)Cc1ccc(-c2cc(Cl)cc(Cl)c2)cc1`, for which the GI50 in the test on 786-0 renal was 20.2 µM; with HL-60(TB) leukemia it was 8.22 µM; in the test with NCI-H23 lung it was 11.8 µM; with NCI/ADR-RES ovarian it was 11.9 µM; with RXF 393 renal, 7.96 µM; in the test on UACC-62 melanoma, 4.6 µM. The TGI was 91 µM with 786-0 renal; 60 µM in the test on HL-60(TB) leukemia; greater than 100 µM in the test on NCI-H23 lung; 73.3 µM in the test on NCI/ADR-RES ovarian; 35.3 µM in the test on RXF 393 renal; 25.2 µM with UACC-62 melanoma.

In the case of `COc1ccc(-c2c3c(N)c4c(nc3nc3c2c(C)nn3-c2ccccc2)CCCC4)cc1`, the GI50 in the test with 786-0 renal is 4.55 µM; in the test on CCRF-CEM leukemia, 2.18 µM; in the test with HL-60(TB) leukemia, 2.12 µM; with HOP-62 NSCLC, 14.1 µM; in the test with NCI/ADR-RES ovarian, 3.41 µM; in the test with RXF 393 renal, 8.48 µM. Also, the GI50 in the test on UACC-62 melanoma was 13.7 µM. For the same compound, the TGI in the test on 786-0 renal is 17.5 µM; in the test on CCRF-CEM leukemia, 6.86 µM; in the test on HL-60(TB) leukemia, 4.3 µM; in the test with HOP-62 NSCLC, 29.3 µM; with NCI/ADR-RES ovarian it was 14.2 µM; in the test with RXF 393 renal, 26.7 µM. The compound further displayed a TGI with UACC-62 melanoma of 27.9 µM.

Regarding `Cc1cc2c(c(=O)o1)C1=S(SC(c3ccccc3)=C1)S2` (configuration not stated), the TGI in the test with 786-0 renal was 28.8 µM; with CCRF-CEM leukemia, greater than 100 µM; with HOP-62 NSCLC, 45.5 µM; in the test on NCI-H23 lung, greater than 100 µM; with NCI/ADR-RES ovarian, greater than 100 µM; in the test with RXF 393 renal it was 50.1 µM. In the test on UACC-62 melanoma, this compound had a TGI greater than 100 µM.

These data come from PubChem BioAssay (NCI).
